From US9169254B2, “Spiroimidazolone derivative” (Chugai Seiyaku Kabushiki Kaisha, priority 2009, dated 2015)

What follows are compounds tested against T1, human PTH1 receptor (Homo sapiens, UniProt Q03431) (assay: In vitro cAMP signal activity in HKRK-B7 cells (LLC-PK1 cells overexpressing the human PTH1 receptor)). Details: HKRK-B7 cells; compound at 1×10^−3 M; cAMP produced as percentage of that produced by hPTH(1-34) at 100 nM.
T1 sequence (Q03431 27-593): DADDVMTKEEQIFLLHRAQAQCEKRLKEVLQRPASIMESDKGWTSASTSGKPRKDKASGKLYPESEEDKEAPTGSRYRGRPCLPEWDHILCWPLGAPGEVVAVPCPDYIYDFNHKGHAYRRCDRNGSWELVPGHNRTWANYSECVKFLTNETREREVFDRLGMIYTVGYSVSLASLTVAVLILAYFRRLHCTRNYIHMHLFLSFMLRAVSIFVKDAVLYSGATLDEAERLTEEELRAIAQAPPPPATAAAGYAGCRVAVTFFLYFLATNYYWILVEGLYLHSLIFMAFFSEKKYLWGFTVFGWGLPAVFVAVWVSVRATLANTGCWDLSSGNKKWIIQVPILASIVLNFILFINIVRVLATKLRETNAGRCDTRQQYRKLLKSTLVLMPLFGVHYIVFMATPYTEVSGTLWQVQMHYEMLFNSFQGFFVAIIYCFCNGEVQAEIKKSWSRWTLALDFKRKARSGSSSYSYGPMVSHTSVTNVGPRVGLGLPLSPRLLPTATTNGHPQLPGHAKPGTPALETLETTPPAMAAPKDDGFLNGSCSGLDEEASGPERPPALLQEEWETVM
Format: cell-based

Row | cAMP production activity (%) | Structure (SMILES)
1 | 98 | Cc1cc(C(=O)N2CCN(C)CC2)cc(C)c1CCS(=O)(=O)N1CCC2(CC1)N=C(C1CCC(CCC(F)(F)F)CC1)NC2=O (stereo not drawn) [Compound 995, 8-{2-[2,6-Dimethyl-4-(4-methyl-piperazine-1-carbonyl)-phenyl]-ethanesulfonyl}-2-[4-(3,3,3-trifluoro-propyl)-cyclohexyl]-1,3,8-triaza-spiro[4.5]dec-1-en-4-one]
2 | 14 | CCCS(=O)(=O)CCCCCC1=NC2(CCN(S(=O)(=O)CCc3c(C)cc(N(C)C(N)=O)cc3C)CC2)C(=O)N1 [Compound 1356, 1-[3,5-dimethyl-4-(2-{4-oxo-2-[5-(propane-1-sulfonyl)-pentyl]-1,3,8-triaza-spiro[4.5]dec-1-ene-8-sulfonyl}-ethyl)-phenyl]-1-methyl-urea]
3 | 83 | CCOc1cc(NC(C)=O)ccc1CCS(=O)(=O)N1CCC2(CC1)N=C(C1CCC(C)CC1)NC2=O (stereo not drawn) [Compound 751, N-(3-ethoxy-4-{2-[2-(4-methyl-cyclohexyl)-4-oxo-1,3,8-triaza-spiro[4.5]dec-1-ene-8-sulfonyl]-ethyl}-phenyl)-acetamide]
4 | 70 | Cc1cc(NC[C@H](O)CO)ccc1CCS(=O)(=O)N1CCC2(CC1)N=C(c1cccc(Cl)c1)NC2=O [Compound 157, 2-(3-chloro-phenyl)-8-{2-[4-((S)-2,3-dihydroxy-propylamino)-2-methyl-phenyl]-ethanesulfonyl}-1,3,8-triaza-spiro[4.5]dec-1-en-4-one]
5 | 54 | O=C1NC(C2CCCCC2)=NC12CCN(S(=O)(=O)CCc1cccc3c1ccn3CCCCO)CC2 [Compound 651, 2-cyclohexyl-8-{2-[1-(4-hydroxy-butyl)-1H-indol-4-yl]-ethanesulfonyl}-1,3,8-triaza-spiro[4.5]dec-1-en-4-one]
6 | 67 | Cc1cc(N2C(=O)NC(C)(C)C2=O)ccc1CCS(=O)(=O)N1CCC2(CC1)N=C(C1CCC(C)CC1)NC2=O (stereo not drawn) [Compound 863, 5,5-dimethyl-3-(3-methyl-4-{2-[2-(4-methyl-cyclohexyl)-4-oxo-1,3,8-triaza-spiro[4.5]dec-1-ene-8-sulfonyl]-ethyl}-phenyl)-imidazolidine-2,4-dione]
7 | 102 | Cc1cc(N(C)C(N)=O)cc(C)c1/C=C/S(=O)(=O)N1CCC2(CC1)N=C(CCCCCCCC(F)(F)C(F)(F)F)NC2=O [Compound 1303, 1-(3,5-dimethyl-4-{(E)-2-[4-oxo-2-(8,8,9,9,9-pentafluoro-nonyl)-1,3,8-triaza-spiro[4.5]dec-1-ene-8-sulfonyl]-vinyl}-phenyl)-1-methyl-urea]
8 | 46 | Cc1cc(N(CCN(C)C)S(C)(=O)=O)cc(C)c1/C=C/S(=O)(=O)N1CCC2(CC1)N=C(c1cccc(OC(F)(F)F)c1)NC2=O [Compound 609, N-(2-dimethylamino-ethyl)-N-(3,5-dimethyl-4-{(E)-2-[4-oxo-2-(3-trifluoromethoxy-phenyl)-1,3,8-triaza-spiro[4.5]dec-1-ene-8-sulfonyl]-vinyl}-phenyl)-methane sulfonamide]
9 | 77 | Cc1cc(N(C)c2ncc[nH]2)cc(C)c1CCS(=O)(=O)N1CCC2(CC1)N=C(C1CCC(C)CC1)NC2=O (stereo not drawn) [Compound 868, 8-(2-{4-[(1H-imidazol-2-yl)-methyl-amino]-2,6-dimethyl-phenyl}-ethanesulfonyl)-2-(4-methyl-cyclohexyl)-1,3,8-triaza-spiro[4.5]dec-1-en-4-one]
10 | 99 | Cc1cc(N(C)C(N)=O)cc(C)c1CCS(=O)(=O)N1CCC2(CC1)N=C(CCCCCC(F)(F)C(F)(F)F)NC2=O [Compound 1043, 1-(3,5-Dimethyl-4-{2-[4-oxo-2-(6,6,7,7,7-pentafluoro-heptyl)-1,3,8-triaza-spiro[4.5]dec-1-ene-8-sulfonyl]-ethyl}-phenyl)-1-methyl-urea]
11 | 80 | CCOC(=O)CCCCCCCCCCCC1=NC2(CCN(S(=O)(=O)/C=C/c3c(C)cc(N(C)C(N)=O)cc3C)CC2)C(=O)N1 [Compound 1132, 12-(8-{(E)-2-[2,6-dimethyl-4-(1-methyl-ureido)-phenyl]-ethenesulfonyl}-4-oxo-1,3,8-triaza-spiro[4.5]dec-1-en-2-yl)-dodecanoic acid ethyl ester]

The next lines start with the compound.

Row | Structure (SMILES) | cAMP production activity (%)
12 | O=C1NC(C2CCCCC2)=NC12CCN(S(=O)(=O)/C=C/c1cccc3c1ccn3C[C@H](O)CO)CC2 [Compound 191, 2-cyclohexyl-8-{(E)-2-[1-((S)-2,3-dihydroxy-propyl)-1H-indol-4-yl]-ethenesulfonyl}-1,3,8-triaza-spiro[4.5]dec-1-en-4-one] | 57
13 | Cc1cc(S(=O)(=O)NCCN2CCOCC2)ccc1/C=C/S(=O)(=O)N1CCC2(CC1)N=C(c1cccc(C(F)(F)F)c1)NC2=O [Compound 218, 3-methyl-N-(2-morpholin-4-yl-ethyl)-4-{(E)-2-[4-oxo-2-(3-trifluoromethyl-phenyl)-1,3,8-triaza-spiro[4.5]dec-1-ene-8-sulfonyl]-vinyl}-benzenesulfonamide] | 72
14 | Cc1cc(C(=O)N2CCC(O)CC2)cc(C)c1/C=C/S(=O)(=O)N1CCC2(CC1)N=C(c1cccc(OC(F)(F)F)c1)NC2=O [Compound 400, 8-{(E)-2-[4-(4-hydroxy-piperidine-1-carbonyl)-2,6-dimethyl-phenyl]-ethenesulfonyl}-2-(3-trifluoromethoxy-phenyl)-1,3,8-triaza-spiro[4.5]dec-1-en-4-one] | 76
15 | Cc1cc(C(=O)N2CCC(C)(O)CC2)cc(C)c1/C=C/S(=O)(=O)N1CCC2(CC1)N=C(c1ccc(OCC(F)(F)F)c(Cl)c1)NC2=O [Compound 1216, 2-[3-chloro-4-(2,2,2-trifluoro-ethoxy)-phenyl]-8-{(E)-2-[4-(4-hydroxy-4-methyl-piperidine-1-carbonyl)-2,6-dimethyl-phenyl]-ethenesulfonyl}-1,3,8-triaza-spiro[4.5]dec-1-en-4-one] | 61
16 | Cc1cc(C(=O)N2CCC(O)CC2)cc(C)c1/C=C/[S@TB4](=O)(=O)N1CCC2(CC1)N=C(c1ccc3c(c1)OC(F)(F)O3)NC2=O [Compound 1160, 2-(2,2-difluoro-benzo[1,3]dioxol-5-yl)-8-{(E)-2-[4-(4-hydroxy-piperidine-1-carbonyl)-2,6-dimethyl-phenyl]-ethenesulfonyl}-1,3,8-triaza-spiro[4.5]dec-1-en-4-one] | 84
17 | Cc1cc(OCC2(C)COC2)ccc1/C=C/S(=O)(=O)N1CCC2(CC1)N=C(C1CCCCC1)NC2=O [Compound 739, 2-Cyclohexyl-8-{(E)-2-[2-methyl-4-(3-methyl-oxetan-3-ylmethoxy)-phenyl]-ethenesulfonyl}-1,3,8-triaza-spiro[4.5]dec-1-en-4-one] | 47
18 | O=C1NC(C2CCCCC2)=NC12CCN(S(=O)(=O)CCc1ccc3[nH]c(=O)sc3c1)CC2 [Compound 663, 2-cyclohexyl-8-[2-(2-oxo-2,3-dihydro-benzothiazol-6-yl)-ethanesulfonyl]-1,3,8-triaza-spiro[4.5]dec-1-en-4-one] | 27
19 | O=C1NC(C2CCC(CCC(F)(F)F)CC2)=NC12CCN(S(=O)(=O)CCc1cccc3c1ccn3CCOC[C@@H](O)CO)CC2 (stereo partly drawn) [Compound 822, 8-(2-{1-[2-((S)-2,3-dihydroxy-propoxy)-ethyl]-1H-indol-4-yl}-ethanesulfonyl)-2-[4-(3,3,3-trifluoro-propyl)-cyclohexyl]-1,3,8-triaza-spiro[4.5]dec-1-en-4-one] | 99
20 | CO/N=C1\NC(c2cccc(OC(F)(F)F)c2)=NC12CCN(S(=O)(=O)CCc1ccc(C(=O)N(C)C)cc1C)CC2 [Compound 901, 4-{2-[4-[(Z)-methoxyimino]-2-(3-trifluoromethoxy-phenyl)-1,3,8-triaza-spiro[4.5]dec-1-ene-8-sulfonyl]-ethyl}-3,N,N-trimethyl-benzamide] | 1.9
21 | Cc1cc(S(=O)(=O)NCc2cccnc2)ccc1/C=C/S(=O)(=O)N1CCC2(CC1)N=C(c1cccc(C(F)(F)F)c1)NC2=O [Compound 591, 3-methyl-4-{(E)-2-[4-oxo-2-(3-trifluoromethyl-phenyl)-1,3,8-triaza-spiro[4.5]dec-1-ene-8-sulfonyl]-vinyl}-N-pyridin-3-ylmethyl-benzenesulfonamide] | 34
22 | Cc1cc(C(=O)N2CC[C@@H](O)C2)cc(C)c1/C=C/S(=O)(=O)N1CCC2(CC1)N=C(c1cccc(OC(F)(F)F)c1)NC2=O [Compound 401, 8-{(E)-2-[4-((R)-3-hydroxy-pyrrolidine-1-carbonyl)-2,6-dimethyl-phenyl]-ethenesulfonyl}-2-(3-trifluoromethoxy-phenyl)-1,3,8-triaza-spiro[4.5]dec-1-en-4-one] | 83
23 | O=C(Nc1ccc(/C=C/S(=O)(=O)N2CCC3(CC2)N=C(C2CCCCC2)NC3=O)c(C(F)(F)F)c1)C1CC1 [Compound 195, cyclopropanecarboxylic acid {4-[(E)-2-(2-cyclohexyl-4-oxo-1,3,8-triaza-spiro[4.5]dec-1-ene-8-sulfonyl)-vinyl]-3-trifluoromethyl-phenyl}-amide] | 36
24 | CN(C)C(=O)NCc1ccc(/C=C/S(=O)(=O)N2CCC3(CC2)N=C(C2CCCCC2)NC3=O)cc1 [Compound 565, 3-{4-[(E)-2-(2-cyclohexyl-4-oxo-1,3,8-triaza-spiro[4.5]dec-1-ene-8-sulfonyl)-vinyl]-benzyl}-1,1-dimethyl-urea] | 45
